Tested on: bacteria
Experiment: Zone-of-inhibition test, overall outcome in words
Type: cell-based
Experimental: A standard zone-of-inhibition study was performed on the lotion and wound dressing exemplars described above. The zone-of-inhibition test involved placing a quantity of the prepared lotion or wound dressing in a petri dish, which had been cultured with a particular bacterium. The bacteria used in this test included: B. subtilis, B. vulgatus, C. albicans, E. coli, P. aeruginosa, and S. aureus. In each of these tests, the diameter of the prepared lotion or wound dressing placed in the cultured petri dishes was measured and recorded at the outset of the test. On the first, second, and fifth days thereafter the diameter of the zone of inhibition was measured and recorded. The zone of inhibition in this test was defined as the area surrounding the prepared lotion or wound dressing on the petri dish which was uninhabited by the bacteria of the specific culture. Table 1 reports data for the prepared lotion zone-of-inhibition test and Table 2 reports data for the prepared wound dressing zone-of-inhibition test.
Similar results are observed for a zone-of-inhibition test when a yeast-derived β-glucan is used in a medical composition as described herein.

Which “antimicrobial effect in the zone-of-inhibition test (in words)” value (overall outcome of the zone-of-inhibition tests) does the source give for β-glucan here?
Its value is “no inhibition of bacteria”.

And the “effect on bacterial growth (in words)” value (β-glucan as a microbial nutrient)?
The value was “promotes bacterial growth”.
